According to PubChem BioAssay (NCI):
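Dose response: 5 concentrations. Exposure: 48 h. Format: 96-well plates. Endpoint: linear interpolation; highest concentration if not reached. GI50 is the concentration that inhibits growth by half. At the TGI there is no net growth.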

Columns and labels:
Assay in all cases: growth of human tumour cells (NCI), 48 h
A549 NSCLC = tested on: A549 NSCLC
HCT-116 colon = tested on: HCT-116 colon
OVCAR-5 ovarian = tested on: OVCAR-5 ovarian
RPMI-8226 leukemia = tested on: RPMI-8226 leukemia
SK-MEL-28 melanoma = tested on: SK-MEL-28 melanoma
U251 CNS = tested on: U251 CNS
HCC-2998 colon = tested on: HCC-2998 colon
MALME-3M melanoma = tested on: MALME-3M melanoma
MDA-MB-435 = tested on: MDA-MB-435
NCI/ADR-RES ovarian = tested on: NCI/ADR-RES ovarian

| Compound | TGI (A549 NSCLC) [µM] | TGI (HCT-116 colon) [µM] | TGI (OVCAR-5 ovarian) [µM] | TGI (RPMI-8226 leukemia) [µM] | TGI (SK-MEL-28 melanoma) [µM] | TGI (U251 CNS) [µM] | TGI (HCC-2998 colon) [µM] | TGI (MALME-3M melanoma) [µM] | GI50 (A549 NSCLC) [µM] | GI50 (HCC-2998 colon) [µM] | GI50 (HCT-116 colon) [µM] | GI50 (MALME-3M melanoma) [µM] | GI50 (MDA-MB-435) [µM] | TGI (MDA-MB-435) [µM] | GI50 (NCI/ADR-RES ovarian) [µM] | TGI (NCI/ADR-RES ovarian) [µM] | GI50 (OVCAR-5 ovarian) [µM] | GI50 (U251 CNS) [µM] | GI50 (RPMI-8226 leukemia) [µM] | GI50 (SK-MEL-28 melanoma) [µM] |
| --- | --- | --- | --- | --- | --- | --- | --- | --- | --- | --- | --- | --- | --- | --- | --- | --- | --- | --- | --- | --- |
| Cc1ccc(-c2nnc(-c3nn(-c4ccccc4)c4nc5ccccc5nc34)o2)cc1 | 41.4 | 25 | > 100 | > 100 | > 100 | 59.1 |  |  |  |  |  |  |  |  |  |  |  |  |  |  |
| Cc1cccc(C)c1NC(=O)/C(=N/NC(N)=S)C(C)C(=O)c1ccc(Cl)cc1 (centres undefined) | > 100 | > 100 | > 100 | > 100 | > 100 | > 100 | > 100 | > 100 |  |  |  |  |  |  |  |  |  |  |  |  |
| CCN(CC)CC1c2ccccc2C(CNc2ccccc2)N1C (centres undefined) | > 100 |  | > 100 | > 100 | > 100 |  | > 100 | > 100 |  |  |  |  |  |  |  |  |  |  |  |  |
| CC(=O)OC12C=C(C)C(C(C)C1)C1C(=O)N(CCN3CCOCC3)C(=O)C12 (centres undefined) | > 100 | > 100 | > 100 |  |  | > 100 | > 100 | > 100 | > 100 | > 100 | > 100 | > 100 | > 100 | > 100 | > 100 | > 100 | > 100 | > 100 |  |  |
| COC(=O)C1(C)CCc2c(OC)ccc(OC)c2C1=O (centres undefined) | > 100 | > 100 | > 100 | > 100 | > 100 | > 100 | > 100 | > 100 |  |  |  |  |  |  |  |  |  |  |  |  |
| COc1cc(C(=O)C/C(CCC(=O)Nc2ccccc2[N+](=O)[O-])=N\NC(N)=O)ccc1O | > 100 | > 100 | > 100 | > 100 | > 100 | > 100 | > 100 | > 100 |  |  |  |  |  |  |  |  |  |  |  |  |
| Fc1ccc(C2SCc3nc4ccccc4n32)c(F)c1 (centres undefined) | > 100 | > 100 | > 100 | > 100 |  | > 100 | > 100 | > 100 |  |  |  |  |  |  |  |  |  |  |  |  |
| CS(=O)(=O)c1ccc(-c2cc(-c3ccc(S(C)(=O)=O)cc3)[n+](-c3cc(-c4ccc(S(C)(=O)=O)cc4)c([O-])c(-c4ccc(S(C)(=O)=O)cc4)c3)c(-c3ccc(S(C)(=O)=O)cc3)c2)cc1 | > 100 | > 100 | > 100 | > 100 | > 100 | > 100 | > 100 | > 100 |  |  |  |  |  |  |  |  |  |  |  |  |
| O=C1OC(Cc2ccccc2)(N2CCCC2=O)C1c1ccccc1 (centres undefined) | > 100 | > 100 | > 100 | > 100 | > 100 | > 100 |  | > 100 |  |  |  |  |  |  |  |  |  |  |  |  |
| CC/C=C\C/C=C\C/C=C\CCCCCCCC(=O)OCC(O)CO (centres undefined) | > 100 | > 68.3 | > 100 | > 77.7 | > 100 | > 73.7 | > 100 | > 100 |  |  |  |  |  |  |  |  |  |  |  |  |
| O=C1CC(c2c[nH]c3ccccc23)C(=O)N1 (centres undefined) | > 100 | > 100 | > 100 | > 100 | > 100 | > 100 | > 100 | > 100 |  |  |  |  |  |  |  |  |  |  |  |  |
| CN(C)CCCn1c(=O)c2ccccc2c2ccccc21 | 49.5 | > 100 | 69.7 | 77.7 | 46.9 | 78.5 | 34.8 |  | 6.63 | 16.4 | 4.74 |  | 11.8 | 26.6 | 10.9 | > 100 | 22.6 | 13.8 | 26.9 | 21.6 |
| NC(CSC1c2ccccc2-c2ccccc21)C(=O)O (centres undefined) | > 100 | > 100 | > 100 | > 100 | > 100 | > 100 |  | > 100 |  |  |  |  |  | > 100 |  | > 100 |  |  |  |  |
| CO[C@H]1CC(O[C@@H]2/C(C)=C/C[C@@H]3C[C@@H](C[C@]4(C=C[C@H](C)[C@@H](C5CCCCC5)O4)O3)OC(=O)[C@@H]3C=C(C)[C@@H](O)[C@H]4OC/C(=C\C=C\[C@@H]2C)[C@]43O)O[C@@H](C)C1O[C@H]1C[C@H](OC)[C@@H](O)[C@H](C)O1 (some centres undefined) |  | 2.72 |  | 4.38 | 3.03 |  | 3 |  |  | 1.51 | 1.4 |  | 1.57 | 3.13 |  |  |  |  | 1.39 | 1.58 |
| COc1cc2c3c(n(C)c(=O)c2cc1OC)-c1cc2c(cc1/C3=C\CCCCN1C(=O)c3ccccc3C1=O)OCO2 | 27.9 | > 100 | > 100 | > 100 | > 100 | 25.8 | 58.7 |  | 7.03 | 12.2 | 22.8 |  | > 100 | > 100 | 24.1 | > 100 | 74 | 10.6 | 8.5 | > 100 |
| O=c1nc(NC2CCCCO2)ccn1CCO (centres undefined) | > 100 | > 100 | > 100 | > 100 | > 100 | > 100 |  | > 100 |  |  |  |  |  |  |  |  |  |  |  |  |
| O=C1c2ccccc2-c2cc([N+](=O)[O-])c([N+](=O)[O-])cc21 | 6.23 | 6.23 | 5.41 | 6.23 | 8.4 | 2.93 |  | 4.95 |  |  |  |  |  | 3.27 |  | 9.64 |  |  |  |  |
| NNC(=O)CS(=O)(=O)Nc1ncccn1 | > 100 | > 100 | > 100 | > 100 | > 100 | > 100 |  | > 100 |  |  |  |  |  | > 100 |  | > 100 |  |  |  |  |
| COc1ccc(-c2[nH]c3ccccc3c2-c2ccc(OC)cc2)cc1 | 30.3 | 14.6 | 33.9 | 69.5 | 31.5 | 16.8 | 21.1 |  | 7.14 | 6.11 | 3.93 |  | 1.79 | 4.58 | 3.82 | 15 | 15.4 | 4.54 | 3.27 | 8.6 |
| O=C1NC(=O)C2C(=O)NC(=O)C1C2c1c(Cl)cccc1Cl (centres undefined) | > 100 | > 58.8 | > 100 | > 67.2 | > 100 | > 100 | > 100 | > 100 |  |  |  |  |  |  |  |  |  |  |  |  |
| O=C(NN1C(=O)CSC12CCCCC2)c1[nH]c2ccc(Br)cc2c1-c1ccccc1 | 30.5 | 35.3 | 95.5 | 33.2 | 69 | 31.9 | 70.4 | 41.3 | 15 | 25.2 | 16.4 | 20.3 | 18.8 | 48.9 |  |  | 31.3 | 15.8 | 12.7 | 24.8 |
